Laboratory results: patent US5968737A, “Method of identifying inhibitors of glutathione S-transferase (GST) gene expression” (The University of Mississippi, priority 1996, dated 1999)
Read-outs that look alike come from different tables or passages of the source.

What was measured:
[1] = target: T1, human GST-π GSTP1a-1a, recombinant, encoded by hGSTP1*A (Ile104, Ala113; SEQ ID NO:3 and SEQ ID NO:4) (Homo sapiens, UniProt P09211); assay: Enzyme kinetics: catalysis of the conjugation of GSH with CDNB by purified recombinant GST-π protein; assay type: biochemical; conditions: 25° C., 0.1M K-phosphate buffer pH 8.3, 2.5 mM GSH
T1 construct: made in house; host or cells: E. coli (XL1 Blue, pBK-CMV vector)
T1 sequence (P09211 2-210 limits assumed): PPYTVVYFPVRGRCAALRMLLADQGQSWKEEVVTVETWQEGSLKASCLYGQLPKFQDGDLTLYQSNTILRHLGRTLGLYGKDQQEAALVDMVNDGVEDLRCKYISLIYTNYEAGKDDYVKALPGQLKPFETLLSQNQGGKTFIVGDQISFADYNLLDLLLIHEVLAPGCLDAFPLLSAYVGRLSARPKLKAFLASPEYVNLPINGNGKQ
Protocol: (§1) FIGS. 8A-C. Lineweaver-Burke plots for the catalysis of the conjugation of GSH with CDNB by GSH-affinity chromatography purified recombinant GSTP1a-1a (FIG. 8A), GSTP1b-1b (FIG. 8B) and GSTP1c-1c (FIG. 8C). Reaction rates were determined with 2.5 mM GSH and 0.015 unit of each enzyme.
(§2) Purification and enzyme kinetic analysis of variant GST-π proteins. Functional consequences of the structural differences in the GST-π variant proteins was determined by the differential ability of the recombinant GST-π proteins to catalyze the conjugation of GSH with 1-chloro-2,4-dinitrobenzene (CDNB), a universal GST substrate. After expression in E. coli, the three GST-π proteins were purified by GSH-affinity chromatography on S-hexyl glutathione linked to epoxy-activated sepharose 6B, as previously described (Simons and Van der Jagt, 1981) and then used for enzyme kinetic analysis. Reaction mixtures (25° C.) in 100 mM potassium phosphate buffer, pH 8.3 contained 0.5-2.5 mM CDNB, 2.5 mM GSH and 0.015 unit of purified GST-π protein. The change in absorbance was monitored at 340 nm over two minutes and used to compute reaction rates. The rates of the spontaneous reactions of GSH with CDNB, determined with reaction mixtures in which the GST-π enzyme was replaced with buffer, were subtracted from the rates of the enzyme catalyzed reactions. The resulting reaction rates were used to generate double reciprocal plots from which Vmax and Km values were determined, using standard methodology (Segel, 1976).

[2] = target: T2, human GST-π variant GSTP1b-1b, recombinant, encoded by hGSTP1*B (Ile104→Val104; SEQ ID NO:5 and SEQ ID NO:6) (Homo sapiens, UniProt P09211, I105V); assay: as above; assay type: biochemical; conditions: 25° C., 0.1M K-phosphate buffer pH 8.3, 2.5 mM GSH
T2 construct: made in house; host or cells: E. coli (XL1 Blue, pBK-CMV vector)
T2 sequence (P09211 2-210 I105V): as the sequence (P09211 2-210 limits assumed) above, with I104V counted along it
Protocol: as §1, §2

[3] = target: T3, human GST-π variant GSTP1c-1c, recombinant, encoded by hGSTP1*C (Ile104→Val104, Ala113→Val113; SEQ ID NO:7 and SEQ ID NO:8) (Homo sapiens, UniProt P09211, A114V/I105V); assay: as above; assay type: biochemical; conditions: 25° C., 0.1M K-phosphate buffer pH 8.3, 2.5 mM GSH
T3 construct: made in house; host or cells: E. coli (XL1 Blue, pBK-CMV vector)
T3 sequence (P09211 2-210 I105V/A114V): as the sequence (P09211 2-210 limits assumed) above, with I104V, A113V counted along it
Protocol: as §1, §2

[4] = tested on: GST-π gene expression in MGR-3 cells; assay: Retinoic acid effect on GST-π gene expression in tumor cells (Northern and Western blotting); assay type: cell-based; conditions: Homo sapiens
Protocol: Retinoic acid effect on GST-π gene expression in tumor cells. To further determine the functionality of the RAREs in GST-π gene of MGR-3 cell line, we examined changes in GST-π gene transcripts in MGR-3 cells after exposure to RA. For this study, MGR-3 cells in exponential growth were treated with 1 μM all-trans RA. Another set cultures without RA treatment served as controls. After 24 and 48 hrs incubation at 37° C., total RNA was extracted and GST-π gene transcript levels were determined by Northern blotting, as described earlier. Alterations in GST-π protein content was determined in cells similarly treated with 1 μM all-trans RA. Cultures were harvested after 0, 12, 24 and 48 hrs post-RA exposure, cell extracts prepared from them, as previously described, and subjected to Western blotting with anti-GST-π antibodies.

[5] = tested on: RAR-β levels in MGR-3 cells; assay: Induction of RAR-β in nuclear extracts of RA-treated MGR-3 cells (immunoprecipitation); assay type: cell-based; conditions: Homo sapiens, 48-hr exposure, read-out: increase in RAR-β levels compared to untreated controls
[6] = listed as 1-Chloro-2,4-dinitrobenzene

SMILES | Vmax (CDNB) [1] [µmol/min/mg] | Km ([1]; 0.5-2.5 mM CDNB) [µM] | Vmax (CDNB) [1, 6] [µmol/min/mg] | Vmax (CDNB) [2] [µmol/min/mg] | Km ([2]; 0.5-2.5 mM CDNB) [µM] | Vmax (CDNB) [2, 6] [µmol/min/mg] | Vmax (CDNB) [3] [µmol/min/mg] | Km ([3]; 0.5-2.5 mM CDNB) [µM] | Vmax (CDNB) [3, 6] [µmol/min/mg] | fold induction at 1 µM ([4]; 1.0 μM, 48 hr, Northern analysis, read-out: increase in the level of GST-π gene transcripts relative to control levels (maximum)) | fold induction at 1 µM ([4]; 1 μM, 48 hrs, Western blot, read-out: increase in GST-π protein content relative to untreated controls) | fold induction at 1 µM [5]
O=[N+]([O-])c1ccc(Cl)c([N+](=O)[O-])c1 [CDNB, 1-chloro-2,4-dinitrobenzene] | 4.7 ± 0.03 | 980 | 4.7 ± 0.03 | 1.7 ± 0.087 | 2700 ± 23 | 1.6 ± 0.087 | 1.4 ± 0.23 | 3100 ± 170 | 1.4 ± 0.23 | – | – | –
CC1=C(/C=C/C(C)=C/C=C/C(C)=C/C(=O)O)C(C)(C)CCC1 [all-trans retinoic acid] | – | – | – | – | – | – | – | – | – | 3.4 | 2.8 | > 3
